Reference: ChEMBL document CHEMBL3232899, “Highly conjugated norditerpenoid and pyrroloquinoline alkaloids with potent PTP1B inhibitory activity from Nigella glandulifera” (J Nat Prod, 2014)

How the values were obtained:
[1] = target: T1, Tyrosine-protein phosphatase non-receptor type 1 (Homo sapiens, UniProt P18031); test: Inhibition of PTP1B (unknown origin) using nitrophenyl phosphate as substrate after 30 mins by spectrophotometry
T1 sequence (P18031 whole entry): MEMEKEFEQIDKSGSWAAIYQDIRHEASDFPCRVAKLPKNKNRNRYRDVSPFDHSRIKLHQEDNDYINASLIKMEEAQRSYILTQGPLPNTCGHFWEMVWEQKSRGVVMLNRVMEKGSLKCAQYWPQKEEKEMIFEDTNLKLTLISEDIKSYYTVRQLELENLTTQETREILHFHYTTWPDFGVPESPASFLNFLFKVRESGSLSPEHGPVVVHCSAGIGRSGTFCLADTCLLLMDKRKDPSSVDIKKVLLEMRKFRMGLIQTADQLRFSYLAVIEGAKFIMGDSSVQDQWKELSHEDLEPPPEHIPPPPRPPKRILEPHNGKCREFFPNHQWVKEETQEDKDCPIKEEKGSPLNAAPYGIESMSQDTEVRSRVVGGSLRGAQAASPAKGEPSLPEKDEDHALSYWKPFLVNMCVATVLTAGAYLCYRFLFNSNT

A-431 = test: Cytotoxicity against human A431 cells at 100 uM by SRB method; format: cell-based; conditions: a-431, 100 µM

IC50 [1] [µM]	SMILES	Activity (A-431)
9.97	CC1=CC(C)(C)N=C2C[C@@]3(C)CC(=O)C(C(C)C)=CC3=C12	Non-toxic
9.71	CC1=CC(C)(C)N=C2C[C@@]3(C)CC(=O)C(C(C)C)=C3C=C12	Non-toxic
6.44	CC1=CC(C)(C)N=C2C[C@]3(C)C(=O)C(C)(C)N=C3C(C)=C12	Non-toxic
